Source: US20100286215A1, “BIS-AROMATIC COMPOUNDS USEFUL IN THE TREATMENT OF INFLAMMATION” (BIS-AROMATIC COMPOUNDS USEFUL IN THE TREATMENT OF …, priority 2007, published 2010)
pIC50: −log10 of the molar value.

Target: T1, Recombinant human LTC4 synthase (Homo sapiens, UniProt Q16873)
T1 construct: made in house; host or cells: Pichia pastoris ('Piccia pastoralis' [sic])
T1 sequence (Q16873 1-150): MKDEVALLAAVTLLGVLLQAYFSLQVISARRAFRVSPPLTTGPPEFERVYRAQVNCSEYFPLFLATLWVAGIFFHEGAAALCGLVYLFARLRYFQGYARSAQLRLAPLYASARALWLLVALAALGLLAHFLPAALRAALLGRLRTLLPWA
Assay: LTC4 synthase assay (conversion of LTA4 methyl ester to LTC4 methyl ester, HPLC)
Format: biochemical
Settings: for inhibition at 10 µM: inhibitor concentration 10 μM, read-out: Percantage Inhibition at 10 μM (unless specified otherwise)
Method: In the assay LTC4 synthase catalyses the reaction where the substrate LTA4 methyl ester is converted to LTC4 methyl ester. Recombinant human LTC4 synthase is expressed in Piccia pastoralis and the purified enzyme is dissolved in 25 mM Tris-buffer pH 7.8 and stored at −20° C. The assay is performed in phosphate buffered saline (PBS) pH 7.4, supplemented with 5 mM glutathione (GSH). The reaction is terminated by addition of acetonitrile/MeOH/acetic acid (50/50/1). The assay is performed at rt in 96-well plates. Analysis of the formed LTC4 methyl ester is performed with reversed phase HPLC (Waters 2795 utilizing an Onyx Monolithic C18 column). The mobile phase consists of acetonitrile/MeOH/H2O (32.5/30/37.5) with 1% acetic acid pH adjusted with NH3 to pH 5.6, and absorbance measured at 280 nm with a Waters 2487 UV-detector.
The following is added chronologically to each well: • 1. 50 μl assay buffer, PBS with 5 mM GSH. • 2. 0.5 μl inhibitor in DMSO. • 3. 2 μl LTC4 synthase in PBS. The total protein concentration in this solution is 0.025 mg/ml. Incubation of the plate at room temperature for 10 minutes. • 4. 0.5 μl LTA4 methyl ester. Incubation of the plate at rt for 1 min. • 5. 50 μl stop solution. 80 μl of the incubation mixture is analysed with HPLC.

Structure (SMILES) | inhibition at 0.3 µM (inhibitor concentration 0.3 μM, read-out: Percantage Inhibition (at a concentration of 0.3 μM)) | inhibition at 10 µM | pIC50
CCCCc1ccc(C(=O)Nc2ccc(C(=O)c3ccc(NC(=O)c4ccc(C(F)(F)F)cc4)c(C(=O)O)c3)cc2C(=O)O)cc1 [Example 9, 2-(4-butylbenzamido)-5-(4-(4-(trifluoromethyl)benzamido)-3-carboxyphenylcarbonyl)-benzoic acid] | 92% | – | –
COc1cc(Cl)ccc1Oc1ccc(C(=O)c2ccc(N(C)c3ccc(Cl)cc3)cc2)cc1C(=O)O [6:5, 2-(4-Chloro-2-methoxy-phenoxy)-5-{4-[(4-chloro-phenyl)-methyl-amino]-benzoyl}-benzoic acid] | – | 98% | –
CCCCOc1ccc(S(=O)(=O)Nc2ccc(C(=O)c3ccc(NC(=O)c4ccc(OC(C)C)cc4)c(C(=O)O)c3)cc2C(=O)O)cc1 [Example 13, 5-[(3-Carboxy-4-(4-n-butoxy-benzenesulfonylamino)benzoyl)]-2-(4-isopropoxybenzoylamino)-benzoic acid] | – | 100% | 7.07
O=C(c1ccc(NS(=O)(=O)c2ccc(Cl)cc2)cc1)c1ccc(NC(=O)c2cccc(C(F)(F)F)c2F)c(C(=O)O)c1 [7:9, 5-[4-(4-Chloro-benzenesulfonylamino)-benzoyl]-2-(2-fluoro-3-trifluoromethyl-benzoylamino)-benzoic acid] | – | 99% | –
O=C(Nc1ccc(C(=O)c2ccc(NC(=O)c3cccc(F)c3F)c(C(=O)O)c2)cc1)c1cccc(Cl)c1 [7:4, 5-[4-(3-Chloro-benzoylamino)-benzoyl]-2-(2,3-difluoro-benzoylamino)-benzoic acid] | – | 100% | –
O=C(Nc1ccc(C(=O)c2ccc(NC(=O)c3ccc(C(F)(F)F)cc3F)c(C(=O)O)c2)cc1C(=O)O)c1ccc(C(F)(F)F)cc1 [Example 8, 2-(2-fluoro-4-(trifluoromethyl)benzamido)-5-(4-(4-(tri-fluoromethyl)benzamido)-3-carboxyphenylcarbonyl)-benzoic acid] | – | 100% | 7.14
CCCCOc1ccc(S(=O)(=O)Nc2ccc(C(=O)c3ccc(NC(=O)c4cccc(Cl)c4Cl)c(C(=O)O)c3)cc2C(=O)O)cc1 [Example 12, 5-[(3-Carboxy-4-(4-n-butoxy-benzenesulfonylamino)benzoyl)]-2-(2,3-dichlorobenzoylamino)benzoic acid] | – | 98% | –
O=C(c1ccc(Nc2ccc(Cl)nc2)cc1)c1ccc(Nc2ccc(F)c(F)c2)c(C(=O)O)c1 [5:7, 5-[4-(6-Chloro-pyridin-3-ylamino)-benzoyl]-2-(3,4-difluoro-phenylamino)-benzoic acid] | – | 90% | –
CN(c1ccc(F)c(F)c1)c1ccc(C(=O)c2ccc(NC(=O)c3cc(Cl)ccc3O)cc2)cc1C(=O)O [Example 18, 5-(4-(5-chloro-2-hydroxy-benzamido)benzoyl)-2-((3,4-difluorophenyl)(methyl)-amino)benzoic acid] | – | 100% | –
CN(c1ccc(Cl)cc1)c1ccc(C(=O)c2ccc(NC3CCC(C(C)(C)C)CC3)c(C(=O)O)c2)cc1 (centres unmarked) [Example 14:3, 2-(4-tert-Butyl-cyclohexylamino)-5-{4-[(4-chloro-phenyl)-methyl-amino]-benzoyl}-benzoic acid] | – | 86% | –
CN(c1ccc(Cl)cc1)c1ccc(C(=O)c2ccc(Nc3ccccc3C(F)(F)F)c(C(=O)O)c2)cc1 [9:2, 5-{4-[(4-Chloro-phenyl)-methyl-amino]-benzoyl}-2-(2-trifluoromethyl-phenylamino)-benzoic acid] | – | 55% | –
O=C(c1ccc(NC(=O)c2ccc(Cl)cc2Cl)c(C(=O)O)c1)c1ccc(NC(=O)c2ccc(Cl)cc2Cl)c(C(=O)O)c1 [Example 10, 2-(2,4-dichlorobenzamido)-5-(4-(2,4-dichlorobenzamido)-3-carboxyphenylcarbonyl)-benzoic acid] | – | 82% | –
O=C(c1ccc(NC(=O)c2cc(Cl)ccc2Cl)cc1)c1ccc(Nc2ccc(F)c(F)c2)c(C(=O)O)c1 [5:10, 5-[4-(2,5-Dichloro-benzoylamino)-benzoyl]-2-(3,4-difluoro-phenylamino)-benzoic acid] | – | 98% | –
O=C(Nc1ccc(C(=O)c2ccc(NC(=O)c3cccc(Cl)c3)c(C(=O)O)c2)cc1)c1cccc(Cl)c1 [7:1, 2-(3-Chloro-benzoylamino)-5-[4-(3-chloro-benzoylamino)-benzoyl]-benzoic acid] | – | 97% | –
O=C(Nc1ccc(C(=O)c2ccc(NS(=O)(=O)c3ccc(Cl)cc3)cc2)cc1C(=O)O)c1cccc(Cl)c1 [7:11, 5-[4-(4-Chloro-benzenesulfonylamino)-benzoyl]-2-(3-chloro-benzoylamino)-benzoic acid] | – | 98% | –
O=C(c1ccc(NC(=O)c2cc(Cl)ccc2O)cc1)c1ccc(Nc2ccc(F)c(F)c2)c(C(=O)O)c1 [5:4, 5-[4-(5-Chloro-2-hydroxy-benzoylamino)-benzoyl]-2-(3,4-difluoro-phenylamino)-benzoic acid] | – | 78% | –
O=C(Nc1ccc(C(F)(F)F)cc1)Nc1ccc(C(=O)c2ccc(NC(=O)Nc3ccc(C(F)(F)F)cc3)c(C(=O)O)c2)cc1C(=O)O [Example 6, 2-[3-(4-trifluoromethylphenyl)-ureido]-5-{3-carboxy-4-[3-(4-trifluoromethylphenyl)ureido]-benzoyl}benzoic acid] | – | 95% | –
O=C(c1ccc(NC(=O)c2ccccc2Cl)cc1)c1ccc(Nc2ccc(F)c(F)c2)c(C(=O)O)c1 [5:5, 5-[4-(2-Chloro-benzoylamino)-benzoyl]-2-(3,4-difluoro-phenylamino)-benzoic acid] | – | 97% | –
O=C(Nc1ccc(C(=O)c2ccc(NS(=O)(=O)c3ccc(Cl)cc3)c(C(=O)O)c2)cc1)c1cccc(Cl)c1 [7:2, 2-(4-Chloro-benzenesulfonylamino)-5-[4-(3-chloro-benzoylamino)-benzoyl]-benzoic acid] | – | 100% | –
CN(c1ccc(Cl)cc1)c1ccc(C(=O)c2ccc(Oc3cccc(Cl)c3F)c(C(=O)O)c2)cc1 [6:6, 2-(3-Chloro-2-fluoro-phenoxy)-5-{4-[(4-chloro-phenyl)-methyl-amino]-benzoyl}benzoic acid] | – | 83% | –
O=C(c1ccc(Nc2ccc(Cl)cc2)c(C(=O)O)c1)c1ccc(Nc2ccc(Cl)cc2)c(C(=O)O)c1 [11:1, 5-{3-Carboxy-[4-(4-chloro-phenylamino)]-benzoyl}-2-(4-chloro-phenylamino)-benzoic acid] | – | 97% | –
CN(c1ccc(Cl)cc1)c1ccc(C(=O)c2ccc(Oc3ccc(F)c(F)c3)c(C(=O)O)c2)cc1 [6:3, 5-{4-[(4-Chloro-phenyl)-methyl-amino]-benzoyl}-2-(3,4-difluoro-phenoxy)-benzoic acid] | – | 90% | –
CN(c1ccc(Cl)cc1)c1ccc(C(=O)c2ccc(Oc3cccc(Cl)c3)c(-c3nnn[nH]3)c2)cc1 [10:2, [4-(3-Chloro-phenoxy)-3-(1H-tetrazol-5-yl)-phenyl]-{4-[(4-chloro-phenyl)-methyl-amino]-phenyl}-methanone] | – | 84% | –
CN(c1ccc(Cl)cc1)c1ccc(C(=O)c2ccc(Oc3cccc(Cl)c3Cl)c(C(=O)O)c2)cc1 [6:9, 5-{4-[(4-Chloro-phenyl)-methyl-amino]-benzoyl}-2-(2,3-dichloro-phenoxy)-benzoic acid] | – | 66% | –
O=C(c1ccc(NS(=O)(=O)c2ccc(Cl)cc2)cc1)c1ccc(NC(=O)c2cc(Cl)ccc2O)c(C(=O)O)c1 [7:8, 5-[4-(4-Chloro-benzenesulfonylamino)-benzoyl]-2-(5-chloro-2-hydroxy-benzoylamino)-benzoic acid] | – | 96% | –
CN(c1ccc(Cl)cc1)c1ccc(C(=O)c2ccc(Oc3ccc(Cl)cc3)c(C(=O)O)c2)cc1 [6:1, 2-(4-Chloro-phenoxy)-5-{4-[(4-chloro-phenyl)-methyl-amino]-benzoyl}-benzoic acid] | – | 62% | –
CN(c1ccc(Cl)cc1)c1ccc(C(=O)c2ccc(NC(=O)c3cccc(Cl)c3Cl)c(-c3nnn[nH]3)c2)cc1 [10:4, 2,3-Dichloro-N-[4-{4-[(4-chloro-phenyl)-methyl-amino]-benzoyl}-2-(1H-tetrazol-5-yl)-phenyl]-benzamide] | – | 77% | –
O=C(c1ccc(Nc2cccc(Cl)c2)cc1)c1ccc(Oc2ccc(F)c(F)c2)c(C(=O)O)c1 [8:2, 5-[4-(3-Chloro-phenylamino)-benzoyl]-2-(3,4-difluoro-phenoxy)-benzoic acid] | – | 98% | –
O=C(c1ccc(NS(=O)(=O)c2ccc(Cl)c(Cl)c2)c(C(=O)O)c1)c1ccc(NS(=O)(=O)c2ccc(Cl)c(Cl)c2)c(C(=O)O)c1 [Example 5, 2-((3,4-dichlorophenyl)sulfonyl-amino)-5-(3-carboxy-4-(((3,4-dichlorophenyl)sulfonyl)amino)-benzoyl)benzoic acid] | – | 98% | –
O=C(c1ccc(Nc2ccc(F)c(F)c2)cc1)c1ccc(Oc2ccc(F)c(F)c2)c(C(=O)O)c1 [8:1, 2-(3,4-Difluoro-phenoxy)-5-[4-(3,4-difluoro-phenylamino)-benzoyl]-benzoic acid] | – | 97% | –
